Biological target: T1, BT2 (Bacteroides thetaiotaomicron, UniProt Q8A5T1)
T1 sequence (Q8A5T1 20-290): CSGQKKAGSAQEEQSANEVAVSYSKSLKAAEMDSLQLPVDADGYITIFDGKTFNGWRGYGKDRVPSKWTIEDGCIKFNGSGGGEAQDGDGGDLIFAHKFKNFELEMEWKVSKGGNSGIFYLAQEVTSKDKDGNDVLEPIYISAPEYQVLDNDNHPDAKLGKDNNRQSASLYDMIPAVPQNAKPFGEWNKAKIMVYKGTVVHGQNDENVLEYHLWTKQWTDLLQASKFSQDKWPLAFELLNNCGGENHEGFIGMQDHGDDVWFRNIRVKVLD
Experiment: 1H-NMR, elimination
Type: biochemical
Settings: elimination to 3-keto-2-hydroxy-glucal

1H-NMR, elimination: while AL/BT2 do so on the α anomer
SMILES: CO[C@H]1O[C@H](CO)[C@@H](O)C(=O)[C@H]1O [3-keto methyl α-glucoside]

Source: paper doi:10.1101/2024.03.25.586180v1 (biorxiv, 2024)
